Measurements reported in PubChem BioAssay (NCI).
“And” between values parts separate entries of the source, which are not always exact repeats. Equal entries are not always repeated.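 1) Cells in 96-well plates. 2) Compound, 48 h, 5 concentrations. 3) Linear interpolation between surrounding doses. 4) Unreached endpoint = highest concentration. GI50 is the concentration that inhibits growth by half. TGI marks complete inhibition of growth.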

Key:
Assay in all cases: growth of human tumour cells (NCI), 48 h
BT-549 breast = tested on: BT-549 breast
SK-MEL-2 melanoma = tested on: SK-MEL-2 melanoma
HL-60(TB) leukemia = tested on: HL-60(TB) leukemia
OVCAR-8 ovarian = tested on: OVCAR-8 ovarian
MDA-MB-231 breast = tested on: MDA-MB-231 breast
SR leukemia = tested on: SR leukemia
MCF7 breast = tested on: MCF7 breast
NCI-H460 lung = tested on: NCI-H460 lung
SN12C renal = tested on: SN12C renal
K-562 leukemia = tested on: K-562 leukemia

Row | SMILES | GI50 (BT-549 breast) | TGI (BT-549 breast) [µM] | GI50 (SK-MEL-2 melanoma) [µM] | TGI (SK-MEL-2 melanoma) [µM] | GI50 (HL-60(TB) leukemia) [µM] | TGI (HL-60(TB) leukemia) [µM] | GI50 (OVCAR-8 ovarian) [µM] | TGI (OVCAR-8 ovarian) [µM] | GI50 (MDA-MB-231 breast) [µM] | TGI (MDA-MB-231 breast) [µM] | GI50 (SR leukemia) [µM] | TGI (SR leukemia) [µM] | GI50 (MCF7 breast) [µM] | TGI (MCF7 breast) [µM] | GI50 (NCI-H460 lung) [µM] | TGI (NCI-H460 lung) [µM] | TGI (SN12C renal) [µM] | TGI (K-562 leukemia) [µM] | GI50 (SN12C renal) [µM] | GI50 (K-562 leukemia)
1 | CCN(CC)C(=O)CC1=C(C)/C(=C/c2[nH]c(-c3ccc[nH]3)cc2OC)N=C1C | 0.787 µM | 47.1 | 0.275 | 0.799 | 1.82 | 61.9 | 0.455 | 22.5 | 0.213 | 0.909 | 0.289 | 0.994 | 0.458 | 17.9 | 0.366 | 14.2 |  |  |  | 
2 | N=Nc1c(OC(=O)Nc2ccccc2)[nH]c2ccccc12 |  | 27.6 |  | 44.6 |  |  |  | 33.9 |  | 41.6 |  | > 100 |  | 38.8 |  | 25.7 | 48.7 | > 100 |  | 
3 | CC(=O)Nc1ccc(-c2c3nc(c(-c4cc5ccccc5[n+](C)c4)c4ccc([nH]4)c(-c4ccc(NC(C)=O)cc4)c4nc(c(-c5cc6ccccc6[n+](C)c5)c5ccc2[nH]5)C=C4)C=C3)cc1 | 17 µM | > 50 | 15 | > 50 | 10.1 | 29.2 | 15.7 | > 50 | 8.1 | 29.7 |  |  | 34.3 | > 50 | 13.8 | > 50 | 23.2 | > 50 | 7.09 | 20.1 µM
4 | COC1C(O)C(C)OC(OC2C(Oc3cccc4c(O)c5c(=O)oc6ccc(C)c7c(=O)oc(c34)c5c67)OC(C)C3O[C@H](c4ccccc4)OC32)C1O (stereo partly drawn) | 0.685 µM and 1.5 µM | 6.27 | 0.937 | 6.07 |  | 4.53 |  | 8.23 | 0.455 | 7.78 |  |  | 0.225 | 4.12 | 0.0241 | 1.43 | 6.17 | 23.2 | 0.173 | 0.309 µM and 0.0798 µM
5 | O=C(/C=C1\C(=O)N(Cc2ccc([N+](=O)[O-])cc2)c2ccccc21)c1ccc(OCCN2CCCCC2)cc1 | 1.64 µM | 3 | 1.66 | 3.14 |  |  | 2.21 | 4.8 | 1.3 | 2.67 |  |  | 1.43 | 4.1 | 1.87 | 3.68 |  | 2.2 |  | 0.415 µM
6 | COc1cc2c(c(OC)c1OC)C(=O)CC(c1cccc(NC(=O)c3ccc(Br)cc3)c1)O2 (stereo not drawn) | 2.09 µM | 6.39 | 2.16 | 5.38 | 1.58 | 4.14 | 2.9 | 9.19 |  |  |  |  | 1.9 | 49.3 | 3.27 | > 100 | > 100 | > 100 | 3.06 | 1.4 µM
7 | Cc1cc(N2CCN(C)CC2)nc(NCc2cc(Nc3ccnc4cc(Cl)ccc34)ccc2F)n1 | 2.13 µM | 4.64 | 1.95 | 3.8 | 1.86 | 3.96 | 3.13 | 9.68 |  |  | 1.94 | 4.89 | 0.334 | 2.75 |  |  | 5.62 | 5.7 | 2.3 | 1.9 µM
8 | CCC1=C(C)/C(=C/c2[nH]c(C(Br)Br)c(CC)c2C)N=C1C(Br)Br |  |  |  | > 100 |  | 52.2 |  | > 100 |  |  |  | 32.6 |  |  |  | > 100 | > 100 | > 100 |  | 
9 | CCCCN(CCCC)c1ccc(C(=N)c2ccc(N(C)C)cc2)cc1 | 1.29 µM | 2.64 | 0.829 | 2.24 | 0.336 | 1.16 | 0.591 | 1.78 | 1.32 | 2.88 |  |  | 0.377 | 1.51 | 0.788 | 2.32 | 2.77 |  | 1.19 | 
10 | CC(N=C(N)N)C(=O)O (stereo not drawn) |  | > 100 |  | > 100 |  |  |  | > 100 |  | > 100 |  | > 100 |  | > 100 |  |  | > 100 | > 100 |  | 
11 | [N-]=[N+]=Nc1ccc(CCN2CCN(c3cccc(C(F)(F)F)c3)CC2)cc1I |  |  |  | > 100 |  | 45.2 |  | > 100 |  |  |  | > 100 |  |  |  | > 100 | > 100 | > 100 |  | 
12 | O=[N+]([O-])c1cc([N+](=O)[O-])c(Cl)c(Cl)c1Cl | 8.84 µM | 21 | 1.76 | 3.42 | 2.07 | 4.69 | 1.94 | 4.57 | 1.71 | 3.24 | 0.639 | 5.86 |  |  | 2.16 | 4.99 |  | 10.9 |  | 0.725 µM
13 | CN1CCN(CCCOc2cccc3nc(Nc4ccc(Cl)c(F)c4)ccc23)CC1 | 2.4 µM | 7.73 | 1.88 | 3.7 |  |  | 2.02 | 3.65 | 1.68 | 3.39 |  |  | 1.31 | 2.77 | 1.91 | 3.7 | 16 |  | 4.16 | 
14 | COc1cc(/C=N/Nc2ncnc3c2cnn3C(C)C)ccc1O | > 20.4 µM | > 25 | 6.82 | 18.7 | 4.07 | 11.9 | 6.37 | > 25 | 6.27 | > 25 |  |  | 4.68 | 16.1 | 8.34 | > 25 | > 25 | > 25 | 8.27 | 7.2 µM
15 | N#CNC(N)=NCCO |  |  |  | > 100 |  | > 100 |  | > 100 |  |  |  | 86.2 |  |  |  | > 100 | > 100 | > 100 |  | 
16 | Cc1cc2cccnc2c2ncccc12 | 2.67 µM | 41.9 | 2.38 | 31.9 |  |  | 0.626 | 11.9 | 0.74 | > 100 |  |  | 2.62 | > 100 | 0.508 | 2.54 | > 100 |  | 1.18 | 
17 | [C-]#[O+].[Cl][Sn]([Cl])[Cl].[Cl][Sn]([Cl])[Cl].[Pt].c1ccc([PH+](c2ccccc2)c2ccccc2)cc1.c1ccc([PH+](c2ccccc2)c2ccccc2)cc1 |  |  | 34 | > 100 | 25.4 | 69.1 | 22.5 | 65.7 |  |  | 37.7 | > 100 |  |  | 33.8 | > 100 | > 100 | > 100 | 56.6 | 34.8 µM
18 | COc1ccc(CN2C(=O)C(Cc3cc(OC)c(OC)c(C)c3OC)NC(=O)/C2=C/c2cc(OC)c(OC)c(C)c2OC)cc1 (stereo not drawn) |  |  |  | 43.2 |  | 45.8 |  | > 100 |  |  |  | 60.7 |  |  |  | 57 | > 100 | > 100 |  | 
19 | O=C(Cc1nc2ccccc2c(=O)n1-c1c(Cl)cccc1Cl)c1ccncc1 |  |  |  | 46.3 |  | 30.6 |  | > 100 |  |  |  | 39.8 |  |  |  | 52.2 | > 100 | > 100 |  | 
20 | CC1(C)OC(=O)[C@@](C)([C@H](O)c2ccccc2)O1 |  |  |  | > 100 |  | > 100 |  | > 100 |  |  |  | > 100 |  |  |  | > 100 | > 100 | > 100 |  | 
21 | O=C(COc1ccc(/C=C2\Oc3ccccc3C2=O)cc1)Nc1nccs1 | 18.5 µM | 96.9 | 39 | > 100 |  |  | > 100 | > 100 | 33.4 | > 100 | 20.8 | 61 | 43.2 | > 100 | 88 | > 100 | > 100 | > 100 | 76.9 | 60.1 µM
22 | CC(C)(C)N/N=C(\Cc1occc(=O)c1O)C(=O)Nc1ccc([N+](=O)[O-])cc1[N+](=O)[O-] |  |  |  | > 100 |  | > 100 |  | > 100 |  |  |  | > 100 |  |  |  | > 100 | > 100 | > 100 |  | 
23 | CC(C)N(C(=O)C12C3C4C5C3C1(C(=O)N(C(C)C)C(C)C)C5(C#N)C42)C(C)C (stereo not drawn) |  |  |  | > 100 |  | 39.4 |  | > 100 |  |  |  | 66.4 |  |  |  | > 100 | > 100 | 73 |  | 
24 | CCOC(=O)C1=C(C)NC2SC(=O)/C(=C\c3ccccc3Cl)N2C1c1ccccc1 (stereo not drawn) | > 100 µM | > 100 | > 100 | > 100 | 59.5 | > 100 | > 100 | > 100 | > 100 | > 100 |  |  | > 100 | > 100 | > 100 | > 100 | > 100 | > 100 | > 100 | > 100 µM
25 | O=C(Cn1c(=O)c(-c2ccccc2)nc2ccccc21)c1ccc(Cl)cc1 |  |  | > 100 | > 100 |  |  | 51.9 | > 100 | 40.9 | > 100 | 37.1 | > 100 | 71.2 | > 100 | 75.6 | > 100 | > 100 | > 100 | 48.6 | > 100 µM
